Columns and labels:
[1] = system: Male spontaneously hypertensive rats (SHR), arterial blood pressure; assay: Depressor response after intravenous administration (30 μg/kg), Table 1; format: in vivo, rat; settings: for Duration: '90<' means greater than 90
How it was run: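 Conscious restrained SHR with mean arterial pressure above 140 mmHg; pressure recorded via abdominal aortic catheter and transducer. Dosing was at least 2 h after surgery, through a caudal vein catheter. Compound was given in 1.5% PVP/ethanol diluted with 0.9% saline.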

in vivo = settings: mouse, iv
Description: Acute toxicity of several derivatives was tested with male ddy mice weighed 15-30 grams by the up and down method. Each derivative was dissolved in 1.5% PVP/ethanol solution, and diluted with a saline solution. Such derivative solution was injected into the caudal vein, and the acute toxicity was determined.

[2] = system: rat (SHR), blood pressure and heart rate; assay: Depressor response of trans- and cis-forms, dose-response intravenous, Tables 5 and 6; format: in vivo; settings: for ED40: Rattus norvegicus, intravenous, from regression line
Description: Male spontaneously hypertensive rats (SHR) which had mean arterial blood pressures higher than 140 mmHg were used for the experiments. Arterial blood pressure was measured through the catherized artery with a pressure transducer (MPU-0.5, manufactured by Nihon Kohden Kabushiki Kaisha). The catheter was inserted into the abdominal aorta via the median coccygcal artery of SHR under light ether anesthesia. The recordings were made on a rectigraph (manufactured by Sanei Sokki Kabushiki Kaisha). The 1,4-dihydropyridine derivatives prepared in the foregoing examples were administered with catheter which was inserted previously into the caudal vein or duodenum at least two hours after the operation. SHR were restrained with wire mesh cage immediately after the operation. […]

[3] = system: Male spontaneously hypertensive rats (SHR), arterial blood pressure; assay: Depressor response after intraduodenal administration (1 mg/kg), Table 2; format: in vivo, rat; settings: for Half-life: '120<' means greater than 120
Description: Arterial blood pressure was measured through the catherized artery with a pressure transducer (MPU-0.5, manufactured by Nihon Kohden Kabushiki Kaisha). The catheter was inserted into the abdominal aorta via the median coccygcal artery of SHR under light ether anesthesia. The recordings were made on a rectigraph (manufactured by Sanei Sokki Kabushiki Kaisha). The 1,4-dihydropyridine derivatives prepared in the foregoing examples were administered with catheter which was inserted previously into the caudal vein or duodenum at least two hours after the operation. SHR were restrained with wire mesh cage immediately after the operation.

[4] = system: Male SHR, systolic blood pressure; assay: Systolic blood pressure by tail cuff method, oral administration (3 mg/kg), Table 4; format: in vivo, rat; settings: conscious SHR; for Duration: '24<' means greater than 24
Description: Systolic blood pressure was measured by the tail cuff method with electrophygmomanometer (PE-300, made by Narco Co.). Each derivative (3 mg/kg) was administered orally, suspended in 5% gum arabic solution.

[5] = male ddy mice, caudal vein injection, '60<' means greater than 60

Row | Compound | The time to reach the lowest BP [1] | ΔBP (Maximum depressor response) [1] | LD50 (in vivo; [5]) | Depressure Response MaxΔBP ([2]; 10 μg/kg i.v.) | Depressure Response Peak ([2]; 10 μg/kg i.v.) | MaxΔHR (Heart rates) ([2]; 10 μg/kg i.v.) | T 1/2 (Halflife) ([2]; 10 μg/kg i.v.) | Depressure Response MaxΔBP ([2]; 30 μg/kg i.v.) | Depressure Response Peak ([2]; 30 μg/kg i.v.) | MaxΔHR (Heart rates) ([2]; 30 μg/kg i.v.) | T 1/2 (Halflife) ([2]; 30 μg/kg i.v.) | Depressure Response MaxΔBP ([2]; 100 μg/kg i.v.) | Depressure Response Peak ([2]; 100 μg/kg i.v.) | MaxΔHR (Heart rates) ([2]; 100 μg/kg i.v.) | T 1/2 (Halflife) ([2]; 100 μg/kg i.v.) | ED40 [2] | Duration [1] | The time to reach the lowest BP [3] | ΔBP (Maximum depressor response) [3] | Half-life [3] | further results
1 | COC(=O)C1=C(C)NC(C)=C(C(=O)OCC/C=C\c2ccc3ccccc3c2)C1c1cccc([N+](=O)[O-])c1 (stereo not drawn) [Example 57, Methyl (Z)-4-(2-naphthyl)-3-butenyl 4-(3-nitrophenyl)-2,6-dimethyl-1,4-dihydropyridine-3,5-dicarboxylate (cis)] | 2.6 min | 26.8 mmHg | > 75 mg/kg | 12.0 mmHg | 3.2 min | 23.3 beats/min | 14.0 min | 26.8 mmHg | 2.6 min | 62.5 beats/min | 15.0 min | 68.5 mmHg | 3.8 min | 120 beats/min | 25.0 min | 0.0408 mg/kg | – | – | – | – | –
2 | COC(=O)C1=C(C)NC(C)=C(C(=O)OCCC=Cc2ccc(C#N)cc2)C1c1cccc([N+](=O)[O-])c1 (stereo not shown) [Example 17, 4-(4-cyanophenyl)-3-butenyl methyl 4-(3-nitrophenyl)-2,6-dimethyl-1,4-dihydropyridine-3,5-dicarboxylate] | 1.0 min | 70 mmHg | 45 mg/kg | – | – | – | – | – | – | – | – | – | – | – | – | – | > 80 min | 180 min | 25 mmHg | > 200 min | –
3 | COC(=O)C1=C(C)NC(C)=C(C(=O)OCCN(C)Cc2ccccc2)C1c1cccc([N+](=O)[O-])c1.Cl (stereo not shown) [B, 4-(m-nitrophenyl)-2,6-dimethyl-1,4-dihydropyridine-3,5-dicarboxylic acid-3-methyl ester-5-[2-(benzylmethylamino)-ethyl]ester hydrochloride, reference compound] | 0.6 min | 58.3 mmHg | 9.7 mg/kg | – | – | – | – | – | – | – | – | – | – | – | – | – | 45 to 90 min | 10.7 min | 35 mmHg | 46.7 min | ΔBP After 1 hour [4]: -27 mmHg; ΔBP After 3 hours [4]: -4.5 mmHg; Duration [4]: < 3 h
4 | COC(=O)C1=C(C)NC(C)=C(C(=O)OCC/C=C/c2ccc3ccccc3c2)C1c1cccc([N+](=O)[O-])c1 (stereo not drawn) [12 (trans), 4-β-naphthyl-3-butenyl methyl 4-(3-nitrophenyl)-2,6-dimethyl-1,4-dihydropyridine-3,5-dicarboxylate] | 3.0 min | 50 mmHg | – | 21.7 mmHg | 2.8 min | 43.3 beats/min | 11.3 min | 54.8 mmHg | 4.1 min | 90.0 beats/min | 16.0 min | 72.5 mmHg | 4.3 min | 80.0 beats/min | 37.5 min | 0.0199 mg/kg | > 90 min | 50 min | 25 mmHg | 100 min | LD50 (in vivo): > 60 mg/kg
5 | COC(=O)C1=C(C)NC(C)=C(C(=O)OCC#Cc2ccccc2)C1c1cccc([N+](=O)[O-])c1 (stereo not shown) [Example 55, Methyl phenylpropargyl 4-(3-nitrophenyl)-2,6-dimethyl-1,4-dihydropyridine-3,5-dicarboxylate] | 2 min | 55 mmHg | > 60 mg/kg | – | – | – | – | – | – | – | – | – | – | – | – | – | > 90 min | 60 min | 45 mmHg | > 240 min | ΔBP After 1 hour [4]: -65 mmHg; ΔBP After 3 hours [4]: -75 mmHg; Duration [4]: > 24 h
6 | COC(=O)C1=C(C)NC(C)=C(C(=O)OCCC=Cc2ccc(SC)cc2)C1c1cccc([N+](=O)[O-])c1 (stereo not shown) [Example 24, 4-(p-methylthiophenyl)-3-butenylmethyl 4-(3-nitrophenyl)-2,6-dimethyl-1,4-dihydropyridine-3,5-dicarboxylate] | 2.1 min | 60 mmHg | 50 mg/kg | – | – | – | – | – | – | – | – | – | – | – | – | – | 120 min | 160 min | 27 mmHg | > 160 min | –

— US4672068A, “Antihypertensive 1,4-dihydropyridines having a conjugated ester” (Fujirebio Kabushiki Kaisha, priority 1984, dated 1987)
